Measured values: ChEMBL document CHEMBL3399986, “Rapid 'one-pot' synthesis of a novel benzimidazole-5-carboxylate and its hydrazone derivatives as potential anti-inflammatory and antimicrobial agents” (Bioorg Med Chem Lett, 2015)
Values after ≈ are worked out from the molar mass of the structure shown.

Key:
Assay type in all cases: functional
Klebsiella pneumoniae [1] = assay: Antimicrobial activity against Klebsiella pneumoniae MTCC 3384 assessed as zone of inhibition at 5 mg/ml after 24 hrs by agar well diffusion method; settings: MTCC 3384, 24 h, read-out: IZ
Penicillium chrysogenum [2] = assay: Antifungal activity against Penicillium notatum after 48 hrs by broth dilution method
Rattus norvegicus [3] = assay: Antiinflammatory activity in rat assessed as inhibition of carrageenan-induced paw edema administered 30 mins prior to carrageenan challenge measured after 3 hrs relative to control
Bacillus subtilis [4] = assay: Antimicrobial activity against Bacillus subtilis MTCC 441 after 24 hrs by broth dilution method; settings: MTCC 441, 24 h
Escherichia coli [5] = assay: Antimicrobial activity against Escherichia coli MTCC 4351 after 24 hrs by broth dilution method; settings: MTCC 4351, 24 h
Candida tropicalis [6] = assay: Antifungal activity against Candida tropicalis MTCC 183 after 48 hrs by broth dilution method; settings: MTCC 183, 48 h
Penicillium chrysogenum [7] = assay: Antifungal activity against Penicillium notatum assessed as zone of inhibition at 5 mg/ml after 24 hrs by agar well diffusion method; settings: read-out: IZ
Candida albicans [8] = assay: Antifungal activity against Candida albicans MTCC 461 after 48 hrs by broth dilution method; settings: MTCC 461, 48 h
Bacillus subtilis [9] = assay: Antimicrobial activity against Bacillus subtilis MTCC 441 assessed as zone of inhibition at 5 mg/ml after 24 hrs by agar well diffusion method; settings: MTCC 441, 24 h, read-out: IZ
Aspergillus niger [10] = assay: Antifungal activity against Aspergillus niger MTCC 282 assessed as zone of inhibition at 5 mg/ml after 24 hrs by agar well diffusion method; settings: MTCC 282, 24 h, read-out: IZ
Escherichia coli [11] = assay: Antimicrobial activity against Escherichia coli MTCC 4351 assessed as zone of inhibition at 5 mg/ml after 24 hrs by agar well diffusion method; settings: MTCC 4351, 24 h, read-out: IZ
Staphylococcus aureus [12] = assay: Antimicrobial activity against Staphylococcus aureus MTCC 3160 after 24 hrs by broth dilution method; settings: MTCC 3160, 24 h
Candida tropicalis [13] = assay: Antifungal activity against Candida tropicalis MTCC 183 assessed as zone of inhibition at 5 mg/ml after 24 hrs by agar well diffusion method; settings: MTCC 183, 24 h, read-out: IZ
Candida albicans [14] = assay: Antifungal activity against Candida albicans MTCC 461 assessed as zone of inhibition at 5 mg/ml after 24 hrs by agar well diffusion method; settings: MTCC 461, 24 h, read-out: IZ
Rattus norvegicus [15] = assay: Antiinflammatory activity in rat assessed as inhibition of carrageenan-induced paw edema administered 30 mins prior to carrageenan challenge measured after 2 hrs relative to control
Staphylococcus aureus [16] = assay: Antimicrobial activity against Staphylococcus aureus MTCC 3160 assessed as zone of inhibition at 5 mg/ml after 24 hrs by agar well diffusion method; settings: MTCC 3160, 24 h, read-out: IZ
Rattus norvegicus [17] = assay: Antiinflammatory activity in rat assessed as inhibition of carrageenan-induced paw edema administered 30 mins prior to carrageenan challenge measured after 1 hr relative to control
Klebsiella pneumoniae [18] = assay: Antimicrobial activity against Klebsiella pneumoniae MTCC 3384 after 24 hrs by broth dilution method; settings: MTCC 3384, 24 h
Aspergillus niger [19] = assay: Antifungal activity against Aspergillus niger MTCC 282 after 48 hrs by broth dilution method; settings: MTCC 282, 48 h

Structure (SMILES)	zone of inhibition at 5000 µg/mL (Klebsiella pneumoniae [1]) [mm]	MIC (Penicillium chrysogenum [2]) [µg/mL]	inhibition (INH) (Rattus norvegicus [3]) [%]	MIC (Bacillus subtilis [4]) [µg/mL]	MIC (Escherichia coli [5]) [µg/mL]	MIC (Candida tropicalis [6]) [µg/mL]	zone of inhibition at 5000 µg/mL (Penicillium chrysogenum [7]) [mm]	MIC (Candida albicans [8]) [µg/mL]	zone of inhibition at 5000 µg/mL (Bacillus subtilis [9]) [mm]	zone of inhibition at 5000 µg/mL (Aspergillus niger [10]) [mm]	zone of inhibition at 5000 µg/mL (Escherichia coli [11]) [mm]	MIC (Staphylococcus aureus [12]) [µg/mL]	zone of inhibition at 5000 µg/mL (Candida tropicalis [13]) [mm]	zone of inhibition at 5000 µg/mL (Candida albicans [14]) [mm]	inhibition (INH) (Rattus norvegicus [15]) [%]	zone of inhibition at 5000 µg/mL (Staphylococcus aureus [16]) [mm]	inhibition (INH) (Rattus norvegicus [17]) [%]	MIC (Klebsiella pneumoniae [18]) [µg/mL]	MIC (Aspergillus niger [19]) [µg/mL]
CCCn1c(-c2ccc(Cl)cc2Cl)nc2cc(C(=O)N/N=C/c3ccc(C)cc3)ccc21	18	6.25 (≈ 13.4 µM)	47.73	12.5 (≈ 26.9 µM)	12.5 (≈ 26.9 µM)	6.25 (≈ 13.4 µM)	17	12.5 (≈ 26.9 µM)	17	22	18	6.25 (≈ 13.4 µM)	18	16	52.72	20	49.25	6.25 (≈ 13.4 µM)	3.12 (≈ 6.7 µM)
CCCn1c(-c2ccc(Cl)cc2Cl)nc2cc(C(=O)N/N=C/c3ccc(N(C)C)cc3)ccc21	16	50 (≈ 101 µM)	50.94	6.25 (≈ 12.6 µM)	25 (≈ 50.6 µM)	25 (≈ 50.6 µM)	13	12.5 (≈ 25.3 µM)	19	16	15	12.5 (≈ 25.3 µM)	16	16	53.84	17	55	25 (≈ 50.6 µM)	25 (≈ 50.6 µM)
CCCn1c(-c2ccc(Cl)cc2Cl)nc2cc(C(=O)N/N=C/c3ccc(OC)cc3)ccc21	14	50 (≈ 104 µM)	64.67	50 (≈ 104 µM)	12.5 (≈ 26 µM)	25 (≈ 51.9 µM)	12	25 (≈ 51.9 µM)	10	18	17	12.5 (≈ 26 µM)	16	15	62.23	17	51.11	50 (≈ 104 µM)	12.5 (≈ 26 µM)
CCCn1c(-c2ccc(Cl)cc2Cl)nc2cc(C(=O)N/N=C/c3ccccc3[N+](=O)[O-])ccc21	17	50 (≈ 101 µM)	47.44	25 (≈ 50.4 µM)	12.5 (≈ 25.2 µM)	25 (≈ 50.4 µM)	12	50 (≈ 101 µM)	16	18	17	25 (≈ 50.4 µM)	16	14	51.74	15	46.66	25 (≈ 50.4 µM)	12.5 (≈ 25.2 µM)
CCCn1c(-c2ccc(Cl)cc2Cl)nc2cc(C(=O)N/N=C/c3cccc([N+](=O)[O-])c3)ccc21	18	12.5 (≈ 25.2 µM)	42.91	12.5 (≈ 25.2 µM)	25 (≈ 50.4 µM)	3.12 (≈ 6.29 µM)	15	6.25 (≈ 12.6 µM)	17	20	15	12.5 (≈ 25.2 µM)	20	17	53.14	17	52.22	12.5 (≈ 25.2 µM)	6.25 (≈ 12.6 µM)
CCCn1c(-c2ccc(Cl)cc2Cl)nc2cc(C(=O)N/N=C/c3ccc([N+](=O)[O-])cc3)ccc21	17	25 (≈ 50.4 µM)	46.27	25 (≈ 50.4 µM)	12.5 (≈ 25.2 µM)	12.5 (≈ 25.2 µM)	13	50 (≈ 101 µM)	16	20	18	12.5 (≈ 25.2 µM)	16	13	50.2	17	50	25 (≈ 50.4 µM)	6.25 (≈ 12.6 µM)
CCCn1c(-c2ccc(Cl)cc2Cl)nc2cc(C(=O)N/N=C/c3cccc(Cl)c3Cl)ccc21	18	50 (≈ 96.1 µM)	45.1	25 (≈ 48.1 µM)	12.5 (≈ 24 µM)	25 (≈ 48.1 µM)	12	12.5 (≈ 24 µM)	15	20	18	12.5 (≈ 24 µM)	16	16	49.65	17	53.14	12.5 (≈ 24 µM)	6.25 (≈ 12 µM)
CCCn1c(-c2ccc(Cl)cc2Cl)nc2cc(C(=O)N/N=C/c3ccc(Cl)cc3Cl)ccc21	15	50 (≈ 96.1 µM)	38.39	25 (≈ 48.1 µM)	50 (≈ 96.1 µM)	12.5 (≈ 24 µM)	12	25 (≈ 48.1 µM)	15	18	12	25 (≈ 48.1 µM)	16	15	63.63	15	51.29	50 (≈ 96.1 µM)	25 (≈ 48.1 µM)
CCCn1c(-c2ccc(Cl)cc2Cl)nc2cc(C(=O)N/N=C/c3cc(C)c(O)c(C)c3)ccc21	17	25 (≈ 50.5 µM)	43.06	12.5 (≈ 25.2 µM)	6.25 (≈ 12.6 µM)	12.5 (≈ 25.2 µM)	15	50 (≈ 101 µM)	17	20	20	12.5 (≈ 25.2 µM)	16	14	50.48	17	51.11	25 (≈ 50.5 µM)	6.25 (≈ 12.6 µM)
CCCn1c(-c2ccc(Cl)cc2Cl)nc2cc(C(=O)N/N=C/c3ccccc3)ccc21	12	25 (≈ 55.4 µM)	47.15	25 (≈ 55.4 µM)	12.5 (≈ 27.7 µM)	50 (≈ 111 µM)	16	50 (≈ 111 µM)	15	19	18	50 (≈ 111 µM)	12	12	54.12	12	56.85	50 (≈ 111 µM)	25 (≈ 55.4 µM)
CC1(C)S[C@@H]2[C@H](NC(=O)[C@H](N)c3ccccc3)C(=O)N2[C@H]1C(=O)O [AMPICILLIN]	23			1.56 (≈ 4.46 µM)	1.56 (≈ 4.46 µM)				24		25	1.56 (≈ 4.46 µM)				26		3.12 (≈ 8.93 µM)	
O=C([O-])Cc1ccccc1Nc1c(Cl)cccc1Cl.[Na+] [DICLOFENAC SODIUM]			74.74												73.28		62.96		
OC(Cn1cncn1)(Cn1cncn1)c1ccc(F)cc1F [FLUCONAZOLE]		3.12 (≈ 10.2 µM)				1.56 (≈ 5.09 µM)	22	1.56 (≈ 5.09 µM)		24			24	23					1.56 (≈ 5.09 µM)
COc1ccc2c(c1)c(CC(=O)O)c(C)n2C(=O)c1ccc(Cl)cc1 [INDOMETHACIN]			69.34												68.11		55.55		
